Test results from PubChem BioAssay (NCI).
Several values for one entry are separate records, joined by “and”; a condition that tells them apart may be missing. Equal values may be shown once.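 Where inhibition never reached the appropriate level, the endpoint shown equals the highest concentration tested. Otherwise, values were interpolated linearly from a five-concentration, 48-hour dose response in 96-well plates. GI50 is the concentration that inhibits growth by half. Definition used: TGI = concentration required for complete inhibition of growth.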

How the values were obtained:
Test in all cases: NCI-60 cell line screen, 48 h
HL-60(TB) leukemia = tested on: HL-60(TB) leukemia
SNB-75 CNS = tested on: SNB-75 CNS
786-0 renal = tested on: 786-0 renal
SNB-19 CNS = tested on: SNB-19 CNS
HCT-15 colon = tested on: HCT-15 colon
SF-539 CNS = tested on: SF-539 CNS
NCI-H460 lung = tested on: NCI-H460 lung
U251 CNS = tested on: U251 CNS
M14 melanoma = tested on: M14 melanoma
OVCAR-3 ovarian = tested on: OVCAR-3 ovarian

Structure (SMILES) | GI50 (HL-60(TB) leukemia) | TGI (HL-60(TB) leukemia) | GI50 (SNB-75 CNS) | TGI (SNB-75 CNS) | GI50 (786-0 renal) | TGI (786-0 renal) | GI50 (SNB-19 CNS) | TGI (SNB-19 CNS) | GI50 (HCT-15 colon) | TGI (HCT-15 colon) | GI50 (SF-539 CNS) | TGI (SF-539 CNS) | GI50 (NCI-H460 lung) | TGI (NCI-H460 lung) | GI50 (U251 CNS) | TGI (U251 CNS) | GI50 (M14 melanoma) | TGI (M14 melanoma) | GI50 (OVCAR-3 ovarian) | TGI (OVCAR-3 ovarian)
C=CC(=O)Nc1cc2c(Nc3ccc(F)c(Cl)c3)ncnc2cc1OCCCN1CCOCC1 | 2 µM and 1.73 µM | 4.88 µM and 7.33 µM | 0.47 µM and 1.06 µM | 4.54 µM and > 7.95 µM | 2.04 µM and 3.04 µM | 10.9 µM and > 10 µM | 2.53 µM and > 6.7 µM | 14.7 µM and > 10 µM | 1.4 µM and 2.17 µM | 3.6 µM and > 6.04 µM | 1.58 µM and 3.89 µM | 3.5 µM and > 10 µM | 3.65 µM and 5.27 µM | 15.4 µM and > 10 µM | 3.57 µM and > 6.22 µM | 14.9 µM and > 10 µM | 1.7 µM and 4.48 µM | 3.52 µM and > 10 µM | 1.52 µM and 1.3 µM | 4.63 µM and > 8.9 µM
COc1cc2c(=O)n(CCN)c3c4cc5c(cc4ccc3c2cc1OC)OCO5 | 1.24 µM | 3.53 µM | 0.892 µM | 3.35 µM | 0.464 µM | 1.97 µM | 0.414 µM | 1.97 µM | 0.651 µM | 2.19 µM | 0.893 µM | 2.25 µM | 0.236 µM | 1.25 µM | 0.287 µM | 1.75 µM | 0.425 µM | 1.89 µM | 0.919 µM | 2.26 µM
CC[C@]1(O)C(=O)OCc2c1cc1n(c2=O)Cc2cc3c(N)cccc3nc2-1 | – | > 100 µM | – | 99.1 µM | – | > 100 µM | – | > 100 µM | – | > 100 µM | – | > 100 µM | – | > 100 µM | – | > 100 µM | – | > 100 µM | – | > 100 µM
Cc1cccc(-n2c(=S)[nH]c3c(sc(=O)n3-c3ccccc3C)c2=O)c1 | – | > 100 µM | – | > 100 µM | – | > 100 µM | – | > 100 µM | – | > 100 µM | – | > 100 µM | – | > 100 µM | – | > 100 µM | – | > 100 µM | – | > 100 µM
Cc1[nH]nc(C(=O)n2nc(N)c3ccccc32)c1[N+](=O)[O-] | – | > 100 µM | 26.9 µM | > 88.9 µM | > 100 µM | > 100 µM | > 100 µM | > 100 µM | > 63.5 µM | > 100 µM | > 100 µM | > 100 µM | > 100 µM | > 100 µM | > 57.2 µM | > 100 µM | > 100 µM | > 100 µM | > 100 µM | > 100 µM
Cc1cc(C)c(C(=O)c2no[n+]([O-])c2C(=O)c2c(C)cc(C)c(Br)c2C)c(C)c1Br | – | 15.2 µM | – | 25.8 µM | – | 32.8 µM | – | 29.1 µM | – | 30 µM | – | 29.1 µM | – | 45.8 µM | – | 25 µM | – | 25.1 µM | – | 29.5 µM
COc1ccc(C2=NN(C=O)C(c3cccc(Nc4ccnc5cc(Cl)ccc45)c3)C2)cc1 (centres undefined) | 2.03 µM | 4.91 µM | 2.56 µM | 38 µM | 3.43 µM | 17.6 µM | 5.11 µM | > 100 µM | 2.13 µM | 17 µM | 2.34 µM | 7.41 µM | 2.73 µM | 15.7 µM | 2.77 µM | 14.4 µM | 2.34 µM | 15.9 µM | 1.97 µM | 12.5 µM
CCOC(=O)c1cc(/C=C/C(C)=C/C(=O)OC)oc1C | – | > 100 µM | – | > 100 µM | – | > 100 µM | – | > 100 µM | – | > 100 µM | – | > 100 µM | – | > 100 µM | – | > 100 µM | – | > 100 µM | – | > 100 µM
